Laboratory results from patent publication US7825127B2, “Method for treating cancer” (Takeda Pharmaceutical Company, Limited, priority 2006, dated 2010).

Tests used:
Assay in all cases: Sulforhodamine B cell growth inhibitory assay
Assay type in all cases: cell-based
BT-474 = BT-474 (FIG. 2A), 5 days
Protocol: (§1) Sulforhodamine B staining method was used for cell growth inhibitory assay. Each cell was plated on a 96 well plate (Nunc). The next day, compound X was serially diluted and added thereto. The cell lines used and the terms of incubation of the compound are indicated separately. To immobilize the cells, 25% glutaraldehyde solution (Wako, 50 μL) was added to the culture medium (200 μL) and the mixture was left standing at room temperature for 15 min.
(§2) The plate was then washed once with PBS (Invitrogen), 200 μL of PBS was added, 25 μL of 50% trichloroacetic acid (Wako) was added, and the mixture was left standing at 4° C. for 1 hr or longer. The plate was washed 5 times with tap water, redundant water was removed by slamming the plate against paper towels. A 1% (W/W) acetic acid solution (50 μL) containing 0.4% (w/v) Sulforhodamine B (SRB, Sigma) was added to each well and, 15 min later, the plate was washed 3 times with 1% acetic acid solution. The plate was thoroughly dried, 10 mM Tris solution was added, and the mixture was stirred well in a plate shaker, and the absorbance at 550 nm was measured (Bio-Rad, Benchmark Plus).

MCF-7 = MCF-7 (FIG. 2C), 3 days
Protocol: as §1, §2

SK-BR-3 = SK-BR-3 (FIG. 2B), 5 days
Protocol: as §1, §2

CC(C)(O)CC(=O)NCCn1ccc2ncnc(Nc3ccc(Oc4cccc(C(F)(F)F)c4)c(Cl)c3)c21 [compound X, N-{2-[4-({3-chloro-4-[3-(trifluoromethyl)phenoxy]phenyl}amino)-5H-pyrrolo[3,2-d]pyrimidin-5-yl]ethyl}-3-hydroxy-3-methylbutanamide]
sensitivity of cells to growth inhibition (BT-474): high-sensitive | sensitivity of cells to growth inhibition (MCF-7): low-sensitive | sensitivity of cells to growth inhibition (SK-BR-3): high-sensitive
